Entries after “also recorded” stand apart in the source; their conditions may differ.
Experiments:
[1] = test system: adolescent subjects previously diagnosed with ADHD who also had at least one genetic alteration in an mGluR network gene; experiment: Open-label Phase 1b clinical trial of NFC-1 in adolescent ADHD subjects with a CNV in an mGluR network gene; format: in vivo, human
[2] = test system: dementia-related cognitive impairment; conditions: Phase I-III trials, dementia-related indications; cited from earlier work
[3] = test system: group I and group II/III mGluRs; conditions: Hirouchi 2000; cited from earlier work
[4] = test system: adolescent subjects previously diagnosed with ADHD who also had at least one genetic alteration in an mGluR network gene; conditions: recently completed precision-medicine-based clinical trial; cited from earlier work

O=C1CC[C@H](C(=O)N2CCCCC2)N1 [NFC-1, fasoracetam monohydrate]
OCD symptoms during therapy ([1]; eight of the 30 ADHD subjects with symptoms of OCD): OCD symptoms improved
dermatillomania symptoms (ear scratching, bleeding ulcer) during therapy ([1]; one subject with OCD and a history of ear scratching): dermatillomania symptoms had reduced
score on Vanderbilt Scale items related to anxiety (nos. 41, 42, and 47) ([1]; week 5, two subjects, all 3 items, at enrollment maximum score of 3 on 2 of the 3 items): 3
total "never" score for all BRIEF anxiety/mood questions for all subjects ([1]; week 5 of dose escalation (50-400 mg bid), all 30 subjects, score at enrollment was 125): 191
total "often" score for all BRIEF anxiety/mood questions for all subjects ([1]; week 5 of dose escalation (50-400 mg bid), all 30 subjects, score at enrollment was 154): 77
safety and tolerability [2]: generally safe and well tolerated

O=C1CC[C@H](C(=O)N2CCCCC2)N1 [fasoracetam]
activation of mGluRs in vitro [3]: nonselective activator against all classes of mGluRs; also recorded: can stimulate both group I and group II/III mGluRs
treatment of ADHD in subjects having a genetic alteration in an mGluR network gene [4]: successfully treated
